According to ChEMBL document CHEMBL1201862, “PubChem BioAssay data set” (2004):
The source made the active and inactive calls.

Experiments:
Mucolipin-3 [1] = target: T1, Mucolipin-3 (Homo sapiens, UniProt Q8TDD5); experiment: TRPML3 agonist potency, dose response, cell-based, calcium fluorescence (AID 2510); assay type: functional
T1 sequence (Q8TDD5 whole entry): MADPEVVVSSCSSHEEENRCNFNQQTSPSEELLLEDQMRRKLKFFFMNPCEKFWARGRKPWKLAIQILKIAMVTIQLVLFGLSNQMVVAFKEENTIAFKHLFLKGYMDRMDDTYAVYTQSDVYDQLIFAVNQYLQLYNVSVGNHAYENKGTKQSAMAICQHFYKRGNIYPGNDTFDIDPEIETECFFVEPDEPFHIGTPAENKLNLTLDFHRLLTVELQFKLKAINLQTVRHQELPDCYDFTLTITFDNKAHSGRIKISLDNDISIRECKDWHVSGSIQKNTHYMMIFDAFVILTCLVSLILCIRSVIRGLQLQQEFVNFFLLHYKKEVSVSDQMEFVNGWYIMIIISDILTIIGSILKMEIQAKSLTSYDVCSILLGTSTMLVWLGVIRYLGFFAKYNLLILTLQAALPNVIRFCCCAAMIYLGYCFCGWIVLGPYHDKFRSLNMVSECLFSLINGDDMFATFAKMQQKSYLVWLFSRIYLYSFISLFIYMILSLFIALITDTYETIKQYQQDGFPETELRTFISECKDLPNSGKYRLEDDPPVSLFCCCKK

Mucolipin-3 [2] = target: T1, Mucolipin-3; experiment: Dose response cell-based high-throughput screening assay for agonists of the transient receptor potential channel ML3 (TRPML3). [Related pubchem assays: 1526, 1424, 1448 ]; assay type: functional
Ion channel NompC [3] = target: T2, Ion channel NompC (Danio rerio, UniProt Q7T1G6); experiment: Late stage counterscreen for the probe development effort to identify selective agonists of the Transient Receptor Potential Channels 3 (TRPML3): fluorescence-based cell-based dose response assay for TRPN1 agonists.; assay type: functional
T2 sequence (Q7T1G6 whole entry): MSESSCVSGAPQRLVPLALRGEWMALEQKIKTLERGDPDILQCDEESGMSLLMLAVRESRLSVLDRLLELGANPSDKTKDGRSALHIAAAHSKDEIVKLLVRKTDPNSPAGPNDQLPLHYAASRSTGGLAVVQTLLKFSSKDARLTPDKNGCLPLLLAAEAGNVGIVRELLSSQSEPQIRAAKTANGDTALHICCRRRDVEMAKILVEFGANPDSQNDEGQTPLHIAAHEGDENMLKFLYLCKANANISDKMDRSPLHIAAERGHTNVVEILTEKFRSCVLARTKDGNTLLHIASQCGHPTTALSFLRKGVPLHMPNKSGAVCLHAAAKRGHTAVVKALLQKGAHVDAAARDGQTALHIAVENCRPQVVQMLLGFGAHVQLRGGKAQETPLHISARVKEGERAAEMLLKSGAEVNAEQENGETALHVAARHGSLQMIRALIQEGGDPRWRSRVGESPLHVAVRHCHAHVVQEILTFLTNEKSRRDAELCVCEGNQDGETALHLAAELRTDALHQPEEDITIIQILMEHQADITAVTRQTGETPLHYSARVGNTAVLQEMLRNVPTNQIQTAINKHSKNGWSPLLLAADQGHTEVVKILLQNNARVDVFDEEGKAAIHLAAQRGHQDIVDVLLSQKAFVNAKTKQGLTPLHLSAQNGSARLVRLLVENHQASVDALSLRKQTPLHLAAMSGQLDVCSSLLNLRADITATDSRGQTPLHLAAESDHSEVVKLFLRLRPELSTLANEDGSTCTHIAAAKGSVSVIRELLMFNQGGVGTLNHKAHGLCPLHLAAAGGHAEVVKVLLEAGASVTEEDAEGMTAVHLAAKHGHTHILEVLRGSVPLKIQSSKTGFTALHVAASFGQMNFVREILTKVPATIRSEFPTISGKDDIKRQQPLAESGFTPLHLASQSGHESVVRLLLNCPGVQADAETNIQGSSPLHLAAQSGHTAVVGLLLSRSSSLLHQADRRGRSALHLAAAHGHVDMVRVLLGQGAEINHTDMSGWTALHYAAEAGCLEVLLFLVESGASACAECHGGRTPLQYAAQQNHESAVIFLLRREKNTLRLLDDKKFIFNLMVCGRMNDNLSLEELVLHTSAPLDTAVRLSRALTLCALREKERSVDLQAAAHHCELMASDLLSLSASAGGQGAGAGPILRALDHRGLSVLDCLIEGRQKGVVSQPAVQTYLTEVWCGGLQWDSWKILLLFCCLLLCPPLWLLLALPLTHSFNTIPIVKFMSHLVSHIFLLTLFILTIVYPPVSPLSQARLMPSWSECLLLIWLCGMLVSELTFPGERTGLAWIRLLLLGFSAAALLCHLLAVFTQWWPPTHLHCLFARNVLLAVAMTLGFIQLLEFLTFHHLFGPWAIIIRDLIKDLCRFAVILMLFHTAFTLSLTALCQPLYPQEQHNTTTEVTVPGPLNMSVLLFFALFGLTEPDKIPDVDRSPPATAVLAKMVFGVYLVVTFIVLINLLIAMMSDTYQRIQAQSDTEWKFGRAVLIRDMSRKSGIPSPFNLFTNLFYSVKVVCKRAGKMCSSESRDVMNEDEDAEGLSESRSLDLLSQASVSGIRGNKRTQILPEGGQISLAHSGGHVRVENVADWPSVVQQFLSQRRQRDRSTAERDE

Ion channel NompC [4] = target: T2, Ion channel NompC; experiment: Fluorescence counterscreen assay for TRPML3 agonists: dose response cell-based high-throughput screening assay to identify agonists of the transient receptor potential channel N1 (TRPN1). [Related pubchem assays: 1526, 1424, 1448 ]; assay type: functional
Leucine aminopeptidase = target: T3, Leucine aminopeptidase (Plasmodium falciparum 3D7, UniProt Q8IL11); experiment: P. falciparum M17LAP inhibitors, primary screen, biochemical, fluorogenic H-Leu-NHMec substrate, 1536-well (AID 1619); assay type: functional
T3 sequence (Q8IL11 whole entry): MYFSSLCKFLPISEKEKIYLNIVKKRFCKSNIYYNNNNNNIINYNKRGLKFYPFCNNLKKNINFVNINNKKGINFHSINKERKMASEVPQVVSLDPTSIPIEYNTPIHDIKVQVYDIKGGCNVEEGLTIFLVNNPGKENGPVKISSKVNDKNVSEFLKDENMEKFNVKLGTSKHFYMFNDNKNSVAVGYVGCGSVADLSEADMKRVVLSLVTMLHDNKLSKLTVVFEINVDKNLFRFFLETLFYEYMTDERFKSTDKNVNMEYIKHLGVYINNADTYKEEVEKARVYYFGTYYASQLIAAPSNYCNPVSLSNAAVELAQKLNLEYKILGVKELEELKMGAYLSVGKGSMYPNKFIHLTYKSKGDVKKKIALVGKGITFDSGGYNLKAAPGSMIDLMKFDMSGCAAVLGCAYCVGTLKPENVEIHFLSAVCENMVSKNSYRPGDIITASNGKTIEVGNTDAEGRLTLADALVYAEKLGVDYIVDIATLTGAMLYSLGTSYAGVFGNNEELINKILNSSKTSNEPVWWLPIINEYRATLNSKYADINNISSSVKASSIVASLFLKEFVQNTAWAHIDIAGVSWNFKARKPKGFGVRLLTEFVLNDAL

Aspartyl aminopeptidase = Aspartyl aminopeptidase (Plasmodium falciparum 3D7, UniProt Q8I2J3); experiment: Counterscreen for inhibitors of M1 and M17 aminopeptidases: QFRET-based biochemical high throughput dose response assay for inhibitors of the Plasmodium falciparum M18 Aspartyl Aminopeptidase (PFM18AAP). [Related PubChem assays: 1619 (Screening assay (M17LAP inhibitors).), 1445 (Screening assay (M1AAP inhibitors).)]
Chain of Aspartyl aminopeptidase (Q8I2J3 whole entry): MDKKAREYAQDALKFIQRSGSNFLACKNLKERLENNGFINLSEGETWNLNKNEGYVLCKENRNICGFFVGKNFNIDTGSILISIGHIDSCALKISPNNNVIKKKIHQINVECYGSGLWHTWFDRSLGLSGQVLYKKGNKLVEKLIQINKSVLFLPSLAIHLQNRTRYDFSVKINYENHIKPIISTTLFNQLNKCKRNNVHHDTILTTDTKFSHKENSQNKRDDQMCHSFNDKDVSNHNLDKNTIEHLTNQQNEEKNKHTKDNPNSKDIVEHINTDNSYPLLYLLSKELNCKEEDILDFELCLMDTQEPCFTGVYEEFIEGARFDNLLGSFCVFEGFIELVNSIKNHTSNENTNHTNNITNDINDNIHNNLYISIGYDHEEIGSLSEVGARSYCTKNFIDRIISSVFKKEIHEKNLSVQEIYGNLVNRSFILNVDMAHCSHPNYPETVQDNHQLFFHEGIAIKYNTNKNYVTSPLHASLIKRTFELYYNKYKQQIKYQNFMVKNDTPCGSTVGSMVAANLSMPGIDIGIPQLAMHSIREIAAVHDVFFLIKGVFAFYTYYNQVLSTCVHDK

Procathepsin L = Procathepsin L (Homo sapiens, UniProt P07711); experiment: cathepsin L inhibitors, dose response, counter-screen for M1/M17 aminopeptidase inhibitor project, biochemical, QFRET, 1536-well (AID 2214)
Chain of Procathepsin L (P07711 whole entry): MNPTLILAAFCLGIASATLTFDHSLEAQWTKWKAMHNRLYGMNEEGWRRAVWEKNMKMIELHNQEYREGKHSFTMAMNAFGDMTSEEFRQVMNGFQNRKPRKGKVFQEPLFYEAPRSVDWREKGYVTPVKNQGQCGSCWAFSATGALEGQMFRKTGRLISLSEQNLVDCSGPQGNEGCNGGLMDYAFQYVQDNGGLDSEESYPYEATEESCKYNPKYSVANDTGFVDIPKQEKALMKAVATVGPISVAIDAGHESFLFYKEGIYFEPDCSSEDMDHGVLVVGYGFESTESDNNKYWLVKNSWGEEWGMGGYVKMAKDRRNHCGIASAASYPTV

[5] = target: T4, Heat shock factor protein 1 (Mus musculus, UniProt P38532); experiment: HSF1 potentiators in luciferase reporter cells, confirmation, cell-based, NIH3T3, luminescence, dose retest (AID 435004); assay type: functional;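 note: stress induced by proteasome inhibitor MG132 added 30 min after compound; luciferase reporter driven by HSF1 response element in NIH3T3 cells; actives raise luminescence as potentiators of the MG132 stress response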
T4 sequence (P38532 whole entry): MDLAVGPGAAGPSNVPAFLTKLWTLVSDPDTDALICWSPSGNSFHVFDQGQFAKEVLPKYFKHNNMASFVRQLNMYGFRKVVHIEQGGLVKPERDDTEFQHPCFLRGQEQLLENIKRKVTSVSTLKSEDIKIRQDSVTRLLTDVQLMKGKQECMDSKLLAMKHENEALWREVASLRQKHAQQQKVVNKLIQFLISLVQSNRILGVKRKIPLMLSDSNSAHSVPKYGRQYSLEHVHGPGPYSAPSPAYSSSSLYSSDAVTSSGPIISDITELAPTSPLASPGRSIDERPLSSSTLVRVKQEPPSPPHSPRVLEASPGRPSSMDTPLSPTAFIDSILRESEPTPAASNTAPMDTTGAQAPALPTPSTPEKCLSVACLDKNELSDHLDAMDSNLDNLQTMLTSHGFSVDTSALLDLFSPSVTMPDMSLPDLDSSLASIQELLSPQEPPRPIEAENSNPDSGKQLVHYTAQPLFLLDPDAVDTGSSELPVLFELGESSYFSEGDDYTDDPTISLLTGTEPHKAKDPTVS

[6] = target: T5, Replicative DNA helicase DnaB (Mycobacterium tuberculosis, UniProt P9WMR3); experiment: DnaB intein splicing inhibitors, dose response, biochemical, cell-free fluorescence (AID 449749); assay type: functional
T5 sequence (P9WMR3 whole entry): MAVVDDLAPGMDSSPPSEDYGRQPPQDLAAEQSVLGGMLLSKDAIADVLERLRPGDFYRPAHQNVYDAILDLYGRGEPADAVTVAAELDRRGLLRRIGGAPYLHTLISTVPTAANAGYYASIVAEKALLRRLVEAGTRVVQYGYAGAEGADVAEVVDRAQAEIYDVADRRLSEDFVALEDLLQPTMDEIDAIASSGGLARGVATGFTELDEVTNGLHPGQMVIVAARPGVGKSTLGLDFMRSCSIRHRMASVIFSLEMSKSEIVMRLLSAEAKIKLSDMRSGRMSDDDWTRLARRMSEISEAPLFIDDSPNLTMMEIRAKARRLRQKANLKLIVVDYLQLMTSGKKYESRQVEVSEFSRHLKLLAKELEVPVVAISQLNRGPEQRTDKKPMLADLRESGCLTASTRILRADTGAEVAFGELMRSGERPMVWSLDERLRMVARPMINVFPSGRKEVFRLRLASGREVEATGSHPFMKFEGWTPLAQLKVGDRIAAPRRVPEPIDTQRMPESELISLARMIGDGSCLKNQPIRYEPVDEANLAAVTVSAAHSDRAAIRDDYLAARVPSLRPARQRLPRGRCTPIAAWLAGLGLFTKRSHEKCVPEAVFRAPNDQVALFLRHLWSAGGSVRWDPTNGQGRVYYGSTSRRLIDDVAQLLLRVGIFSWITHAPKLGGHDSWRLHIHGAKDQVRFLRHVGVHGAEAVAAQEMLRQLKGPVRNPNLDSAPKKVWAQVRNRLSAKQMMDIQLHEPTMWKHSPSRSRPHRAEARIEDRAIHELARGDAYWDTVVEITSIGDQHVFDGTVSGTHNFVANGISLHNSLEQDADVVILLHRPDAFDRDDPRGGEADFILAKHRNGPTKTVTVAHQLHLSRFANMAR

Protein RecA = target: T6, Protein RecA (Mycobacterium tuberculosis, UniProt P9WHJ3); experiment: Fluorescence Cell-Free Homogeneous Dose Retest to Identify Inhibitors of RecA-Intein Splicing Activity. [Related pubchem assays (depositor defined):AID2097, AID2223, AID489010, AID492950]; assay type: functional
T6 sequence (P9WHJ3 whole entry): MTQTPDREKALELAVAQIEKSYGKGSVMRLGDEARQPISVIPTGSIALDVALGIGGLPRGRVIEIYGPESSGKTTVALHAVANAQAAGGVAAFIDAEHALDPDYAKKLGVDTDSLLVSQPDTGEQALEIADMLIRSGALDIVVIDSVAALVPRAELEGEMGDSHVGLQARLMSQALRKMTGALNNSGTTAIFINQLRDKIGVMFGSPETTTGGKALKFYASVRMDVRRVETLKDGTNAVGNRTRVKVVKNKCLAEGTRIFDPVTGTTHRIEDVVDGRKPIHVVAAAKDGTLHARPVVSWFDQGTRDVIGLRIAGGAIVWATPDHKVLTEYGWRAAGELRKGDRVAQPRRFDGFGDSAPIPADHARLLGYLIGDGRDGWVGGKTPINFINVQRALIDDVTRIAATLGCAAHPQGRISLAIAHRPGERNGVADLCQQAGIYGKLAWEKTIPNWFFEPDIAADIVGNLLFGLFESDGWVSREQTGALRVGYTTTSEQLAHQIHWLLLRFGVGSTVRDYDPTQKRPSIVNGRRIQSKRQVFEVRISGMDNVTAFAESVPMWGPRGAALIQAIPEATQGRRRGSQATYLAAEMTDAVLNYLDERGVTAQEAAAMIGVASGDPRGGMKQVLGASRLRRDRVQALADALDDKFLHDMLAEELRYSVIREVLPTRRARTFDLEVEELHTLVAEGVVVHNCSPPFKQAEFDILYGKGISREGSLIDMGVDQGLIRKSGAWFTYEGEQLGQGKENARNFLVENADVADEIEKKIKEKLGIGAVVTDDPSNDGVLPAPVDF

Cc1ccc(S(=O)(=O)n2nccc2-c2c(-c3ccccc3)noc2C)cc1
EC50 (Mucolipin-3 [1]): 1.01 µM (active) | EC50 (Mucolipin-3 [2]): 0.819 µM (active) | EC50 (Ion channel NompC [3]): > 29.9 µM (not active) | EC50 (Ion channel NompC [4]): > 29.9 µM (not active)

Oc1cc(-c2ccc(Cl)c(Cl)c2)[nH]n1
IC50 (Leucine aminopeptidase): < 1 µM (active) | IC50 (Aspartyl aminopeptidase): > 73.5 µM (not active) | IC50 (Procathepsin L): > 59.6 µM (not active) | EC50 [5]: > 260 µM (inactive) | AC50 [6]: 2.01 µM (active) | EC50 (Protein RecA): 0.852 µM (active)
